Experimental data taken from patent US10023592B2, “Bromodomain inhibitors” (Celgene Quanticel Research, Inc., priority 2013, dated 2018).

Assays:
[1] = tested on: HL-60, human proleukemia cells; assay: Cell-MTS proliferation assay, HL-60; assay type: cell-based; settings: Homo sapiens, 168 hr
Procedure: (§1) The Cell-MTS assay is a 7-day plate-based colorimetric assay which quantifies the amount of newly generated NADH in the presence or absence of test compound. The NADH level is used for the quantification of cancer cell proliferation.
(§2) Established cancer cell lines with a variety of driving mutations were obtained from American Type Culture Collection (ATCC) and routinely passaged according to ATCC protocols. For routine assay, these cells were seeded at densities which enabled ˜90% confluence after 7 days of culture. Raji, human Burkitts lymphoma cells, (cMYC) were seeded at 15,000 cells per 96-well. HL-60, human proleukemia cells, (NRAS, p16, p53, c-Myc amplified) were seeded at 5,000 cells per 96-well. NCI-H460, human non-small cell lung cancer cells, (KRAS, PIK3CA, STLK11, p16) were seeded at 3,000 cells per 96-well. 24 hr after plating, cells received an 11-point dilution of test compound with final concentration ranges from 100 μM to 2.0 nM. […] At the end of this incubation period, 80 μL of media is removed and 20 μL of CellTiter 96® AQueous Non-Radioactive Cell Proliferation Assay soln (Promega) was added. The cells were incubated until the OD490 was >0.6. IC50 values were calculated using the IDBS XLfit software package and include background subtracted OD490 values and normalization to DMSO controls. Cellular proliferation IC50 values were uploaded and archived using the Chem Biography Platform.

BRD4(BD1) = BRD4(BD1) (Homo sapiens (Human), UniProt O60885); assay: In vitro enzyme inhibition assay (BRD4 AlphaScreen); assay type: binding
In short: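 His-tagged BRD4 tested by AlphaScreen for binding of biotinylated H4K5/8/12/16-tetraacetyl peptide. After 20 min at room temperature, streptavidin donor and nickel chelate acceptor beads added (5 μg/mL final each). IC50 determined.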

[2] = tested on: NCI-H460, human non-small cell lung cancer cells; assay: Cell-MTS proliferation assay, NCI-H460; assay type: cell-based; settings: Homo sapiens, 168 hr
Procedure: as §1, §2

[3] = tested on: Raji, human Burkitts lymphoma cells; assay: Cell-MTS proliferation assay, Raji; assay type: cell-based; settings: Homo sapiens, 168 hr
Procedure: as §1, §2

[4] = in vitro enzyme inhibition assay
[5] = NCI-H460, Cell-MTS proliferation
[6] = Cell-MTS proliferation, HL-60 cells
[7] = Cell-MTS proliferation, NCI-H460 cells
[8] = Cell-MTS proliferation, Raji cells
[9] = HL-60, Cell-MTS, class symbols A/B/C
[10] = NCI-H460, Cell-MTS, class symbols A/B/C
[11] = Raji, Cell-MTS, class symbols A/B/C

SMILES | IC50 ([1]; HL-60, Cell-MTS proliferation) | IC50 (BRD4(BD1); [4]) | IC50 [2, 5] | IC50 ([3]; Raji, Cell-MTS proliferation) | other results
COCCn1cc(-c2cc(S(C)(=O)=O)ccc2OCC2CC2)cc(C)c1=O [Example 244, 5-[2-(cyclopropylmethoxy)-5-methylsulfonylphenyl]-1-(2-methoxyethyl)-3-methylpyridin-2-one] | 500 to 5000 nM | 500 to 5000 nM | > 5 µM | > 5000 nM | –
CCS(=O)(=O)Nc1ncc(OCC2CC2)c(-c2cn(C)c(=O)c3ccc(F)cc23)n1 [Example 157, N-[5-(cyclopropylmethoxy)-4-(6-fluoro-2-methyl-1-oxoisoquinolin-4-yl)pyrimidin-2-yl]ethanesulfonamide] | < 500 nM | < 500 nM | > 5 µM | < 500 nM | –
Cc1cc(-c2nc(NS(C)(=O)=O)ncc2Oc2ccc(F)cc2F)cn(CC2CC2)c1=O [Example 248, N-[4-[1-(cyclopropylmethyl)-5-methyl-6-oxopyridin-3-yl]-5-(2,4-difluorophenoxy)pyrimidin-2-yl]methanesulfonamide] | < 500 nM | < 500 nM | > 5 µM | < 500 nM | –
Cc1cc(-c2cc(CS(C)(=O)=O)ccc2OCC(F)(F)F)cn(C)c1=O [Example 427, 1,3-dimethyl-5-[5-(methylsulfonylmethyl)-2-(2,2,2-trifluoroethoxy)phenyl]pyridin-2-one] | – | < 500 nM | – | – | IC50 [1, 6]: < 500 nM; IC50 [2, 7]: > 5 µM; IC50 [3, 8]: < 500 nM
COc1cc(-c2nc(CS(C)(=O)=O)ncc2Oc2ccc(F)cc2F)cn(C)c1=O [Example 146, 5-[5-(2,4-difluorophenoxy)-2-(methylsulfonylmethyl)pyrimidin-4-yl]-3-methoxy-1-methylpyridin-2-one] | – | < 500 nM | > 5 µM | 500 to 5000 nM | –
Cn1cc(-c2cn(CS(C)(=O)=O)c(=O)cc2OCC2CC2)c2ccccc2c1=O [Example 384, 4-[4-(cyclopropylmethoxy)-1-(methylsulfonylmethyl)-6-oxopyridin-3-yl]-2-methylisoquinolin-1-one] | – | < 500 nM | – | – | IC50 [1, 6]: < 500 nM; IC50 [2, 7]: > 5 µM; IC50 [3, 8]: 500 to 5000 nM
Cn1cc(-c2cc(S(C)(=O)=O)ccc2O[C@H]2CC[C@@H](N)CC2)c2ccccc2c1=O [Example 183, 4-[2-(cis-4-aminocyclohexyl)oxy-5-methylsulfonylphenyl]-2-methylisoquinolin-1-one] | 500 to 5000 nM | < 500 nM | > 5 µM | > 5000 nM | –
COc1ccc(-c2cn(C)c(=O)c3cncn23)cc1NS(C)(=O)=O [Example 132, N-[2-methoxy-5-(7-methyl-8-oxoimidazo[1,5-a]pyrazin-5-yl)phenyl]methanesulfonamide] | – | – | – | – | IC50 [1, 9]: 500 to 5000 nM; IC50 (BRD4(BD1); class symbols A/B/C): 500 to 5000 nM; IC50 [2, 10]: 0.5 to 5 µM; IC50 [3, 11]: > 5000 nM
Cc1cc(-c2cc(S(C)(=O)=O)ccc2O[C@H]2CC[C@H](O)CC2)cn(C)c1=O [Example 401, 5-[2-(4-hydroxycyclohexyl)oxy-5-methylsulfonylphenyl]-1,3-dimethylpyridin-2-one] | – | < 500 nM | – | – | IC50 [1, 6]: < 500 nM; IC50 [2, 7]: > 5 µM; IC50 [3, 8]: 500 to 5000 nM
CCS(=O)(=O)Nc1ccnc(-c2cn(C)c(=O)c3ccc(-c4cnn(C)c4)cc23)c1 [Example 213, N-[2-[2-methyl-6-(1-methylpyrazol-4-yl)-1-oxoisoquinolin-4-yl]pyridin-4-yl]ethanesulfonamide] | 500 to 5000 nM | < 500 nM | > 5 µM | 500 to 5000 nM | –
Cn1cc(-c2cc(S(C)(=O)=O)ccc2OCC2CC2)c2cc(C(F)(F)F)ccc2c1=O [Example 197] | – | – | > 5 µM | 500 to 5000 nM | –
Cn1cc(-c2ccc3c(=O)n(C)cc(-c4cc(S(C)(=O)=O)ccc4OCC4CC4)c3c2)cn1 [Example 46, 4-[2-(cyclopropylmethoxy)-5-methylsulfonylphenyl]-2-methyl-6-(1-methylpyrazol-4-yl)isoquinolin-1-one] | – | – | – | – | IC50 [1, 9]: < 500 nM; IC50 (BRD4(BD1); class symbols A/B/C): < 500 nM; IC50 [2, 10]: > 5 µM; IC50 [3, 11]: < 500 nM
CCS(=O)(=O)c1ccc(OCC2CC2)c(-c2cn(C)c(=O)c3ccc(F)cc23)c1 [Example 174, 4-[2-(cyclopropylmethoxy)-5-ethylsulfonylphenyl]-6-fluoro-2-methylisoquinolin-1-one] | < 500 nM | < 500 nM | > 5 µM | < 500 nM | –
CCS(=O)(=O)c1ccc(OCC2CC2)c(-c2cn(C)c(=O)c3c2OCC(=O)N3)c1 [Example 365, 8-[2-(cyclopropylmethoxy)-5-ethylsulfonylphenyl]-6-methyl-4H-pyrido[4,3-b][1,4]oxazine-3,5-dione] | < 500 nM | – | > 5 µM | < 500 nM | –
COc1cc(-c2nc(NS(C)(=O)=O)ncc2Oc2ccc(F)cc2F)cn(C)c1=O [Example 167, N-[5-(2,4-difluorophenoxy)-4-(5-methoxy-1-methyl-6-oxopyridin-3-yl)pyrimidin-2-yl]methanesulfonamide] | – | < 500 nM | > 5 µM | 500 to 5000 nM | –
Cc1cc(-c2cn(CS(C)(=O)=O)c(=O)cc2Oc2ccc(F)cc2F)cn(CC2CC2)c1=O [Example 250] | < 500 nM | – | > 5 µM | 500 to 5000 nM | –
C#Cc1cc(-c2cc(NS(C)(=O)=O)ccc2Oc2ccc(F)cc2F)cn(C)c1=O [Example 286, N-[4-(2,4-difluorophenoxy)-3-(5-ethynyl-1-methyl-6-oxopyridin-3-yl)phenyl]methanesulfonamide] | – | < 500 nM | > 5 µM | 500 to 5000 nM | –
CCS(=O)(=O)Nc1ncc(Oc2ccc(F)cc2F)c(-c2cc(OC)c(=O)n(C)c2)n1 [Example 168, N-[5-(2,4-difluorophenoxy)-4-(5-methoxy-1-methyl-6-oxopyridin-3-yl)pyrimidin-2-yl]ethanesulfonamide] | < 500 nM | – | > 5 µM | < 500 nM | –
Cc1c(-c2cc(NS(C)(=O)=O)ccc2Oc2ccc(F)cc2F)cn(C)c(=O)c1C [Example 103, N-[4-(2,4-difluorophenoxy)-3-(1,4,5-trimethyl-6-oxopyridin-3-yl)phenyl]methanesulfonamide] | – | – | – | – | IC50 [1, 9]: < 500 nM; IC50 [2, 10]: > 5 µM; IC50 [3, 11]: 500 to 5000 nM
Cc1cc(-c2cc(S(N)(=O)=O)ccc2NCC2CC2)cn(C)c1=O [Example 452, 4-(cyclopropylmethylamino)-3-(1,5-dimethyl-6-oxopyridin-3-yl) benzenesulfonamide] | – | 500 to 5000 nM | – | – | IC50 [1, 6]: 500 to 5000 nM; IC50 [2, 7]: > 5 µM
Cn1cc(-c2nc(NS(C)(=O)=O)ncc2Oc2ccc(F)cc2F)c2ccccc2c1=O [Example 165, N-[5-(2,4-difluorophenoxy)-4-(2-methyl-1-oxoisoquinolin-4-yl)pyrimidin-2-yl]methanesulfonamide] | – | < 500 nM | > 5 µM | 500 to 5000 nM | –
Cn1cc(-c2cc(OS(N)(=O)=O)ccc2OCC2CC2)c2ccccc2c1=O [Example 214, [4-(cyclopropylmethoxy)-3-(2-methyl-1-oxoisoquinolin-4-yl)phenyl]sulfamate] | < 500 nM | – | > 5 µM | < 500 nM | –
CCS(=O)(=O)Nc1ccc(Oc2ccc(F)cc2F)c(-c2cc(O)c(=O)n(C)c2)c1 [Example 451, N-[4-(2,4-difluorophenoxy)-3-(5-hydroxy-1-methyl-6-oxopyridin-3-yl)phenyl]ethanesulfonamide] | – | < 500 nM | – | – | IC50 [1, 6]: < 500 nM; IC50 [2, 7]: > 5 µM
CCCOc1ccc(S(C)(=O)=O)cc1-c1cn(C)c(=O)c2cnc(-c3cnn(C)c3)nc12 [Example 228] | < 500 nM | – | > 5 µM | 500 to 5000 nM | –
Cn1cc(-c2nc(S(C)(=O)=O)ccc2OCC2CC2)c2cc(F)ccc2c1=O [Example 202, 4-[3-(cyclopropylmethoxy)-6-methylsulfonylpyridin-2-yl]-6-fluoro-2-methylisoquinolin-1-one] | – | < 500 nM | > 5 µM | < 500 nM | –
Cc1cc(-c2nc(CS(C)(=O)=O)ncc2Oc2ccc(F)cc2F)cn(C)c1=O [Example 147, 5-[5-(2,4-difluorophenoxy)-2-(methylsulfonylmethyl)pyrimidin-4-yl]-1,3-dimethylpyridin-2-one] | – | < 500 nM | > 5 µM | 500 to 5000 nM | –
CCS(=O)(=O)c1ccc(NCC2CC2)c(-c2cc(Cl)c(=O)n(C)c2)c1 [Example 275] | < 500 nM | – | > 5 µM | < 500 nM | –
Cc1cc(-c2cc(OS(N)(=O)=O)ccc2OCC2CC2)cn(C)c1=O [Example 215, [4-(cyclopropylmethoxy)-3-(1,5-dimethyl-6-oxopyridin-3-yl)phenyl]sulfamate] | < 500 nM | – | > 5 µM | < 500 nM | –
